The test concerns CD2F1 mice, P1798 lymphosarcoma sc, tumor weight T/C. The test is described as follows: NCI In Vivo Anticancer Drug Screen. Data for tumor model P1798 Lymphosarcoma (subcutaneous) in CD2F1 (CDF1) mice. The following applies: endpoint: mean tumor weight, schedule: Q01DX010 (ip), vehicle: saline, higher = larger tumour. As for the experimental part: The antitumor activity of compounds was measured in mice bearing transplantable tumors. Survival or tumor size were measured and the results are expressed as the measurement made in the treated group (T) divided by the measurement made in the vehicle treated control group (C). The tumor model used in this assay is P1798 Lymphosarcoma (subcutaneous) in CD2F1 (CDF1) mice

The structures appear in SMILES notation. Several values for one entry are separate records, joined by “and”; a condition that tells them apart may be missing. Identical values can stand only once.

On to `CN(Cc1cnc2nc(N)nc(N)c2n1)c1c(Cl)cc(C(=O)NC(CCC(=O)O)C(=O)O)cc1Cl` (stereo not given), for which the T/C is, setting by setting: (dose: 10.0 mg/kg/injection) 33 % of control; (dose: 20.0 mg/kg/injection) 12 % of control.
As for `N#Cc1cn(C2OC(CO)C(O)C2O)c2ncnc(N)c12` (stereo not given), the T/C (dose: 0.06 mg/kg/injection) is 86 % of control; the T/C (dose: 0.12 mg/kg/injection) was 61 % of control; the T/C (dose: 0.25 mg/kg/injection) is 69 % of control and 76 % of control; the T/C (dose: 0.5 mg/kg/injection) is 72 % of control; the T/C (dose: 1.0 mg/kg/injection) is 68 % of control; the T/C (dose: 2.0 mg/kg/injection) was 62 % of control.
As to `C[C@]12CC[C@H](OC3OC(CO)C(O)C(O)C3O)C[C@H]1CC[C@@H]1[C@@H]2CC[C@]2(C)[C@@H](C3=CCOC3=O)CC[C@]12O` (stereo not given in full), the T/C is 71 % of control (dose: 0.13 mg/kg/injection) and 96 % of control (dose: 0.25 mg/kg/injection).
Consider `O=C(O)CCCc1ccc(N(CCCl)CCCl)cc1`, for which the T/C is, setting by setting: (dose: 1.56 mg/kg/injection) 69 % of control; (dose: 3.13 mg/kg/injection) 31 % of control and 52 % of control; (dose: 6.25 mg/kg/injection) 32 % of control and 37 % of control; (dose: 12.5 mg/kg/injection) 3 % of control.
As for `O=c1cn[nH]c(=O)[nH]1`, the T/C was 111 % of control and 89 % of control (dose: 62.5 mg/kg/injection); 97 % of control (dose: 125.0 mg/kg/injection); 62 % of control and 80 % of control (dose: 250.0 mg/kg/injection); 80 % of control (dose: 500.0 mg/kg/injection).
On to `COCCOC`, for which the T/C (dose: 300.0 mg/kg/injection) was 100 % of control, the T/C (dose: 450.0 mg/kg/injection) is 62 % of control and the T/C (dose: 675.0 mg/kg/injection) is 60 % of control.
Regarding `O[C@H](CN1CC1)[C@@H](O)CN1CC1`, the T/C is 76 % of control (dose: 62.5 micrograms/kg/injection), 62 % of control (dose: 125.0 micrograms/kg/injection), 45 % of control (dose: 250.0 micrograms/kg/injection) and 31 % of control (dose: 500.0 micrograms/kg/injection).

Source of the values: PubChem BioAssay AID268 (DTP/NCI, 2004).
